Legend:
Aβ40 = Aβ40 (Homo sapiens, UniProt P05067); assay: Inhibition of Aβ40 self-aggregation (thioflavin T fluorescence, 2% HFIP); conditions: read-out: Aβ40 Aggregation Inhibition % at 100 μM
Aβ40, sequence (P05067 672-711 limits assumed): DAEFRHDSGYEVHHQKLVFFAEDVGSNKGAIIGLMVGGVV
Procedure: All the newly prepared compounds were tested in a routine in vitro assay of inhibition of Aβ40 self-aggregation [25].
All assays were performed in 96-well plates (Greiner Bio-One, Kremsmünster, Austria) using an Infinite M1000 Pro plate reader (Tecan, Cernusco s.N., Italy). Inhibition data were obtained as mean ± SD (for single concentration points) or mean ± SEM from three independent experiments (for IC50s), using Prism (GraphPad Prism version 5.00 for Windows, GraphPad Software, San Diego, CA, USA).
Assay of aggregation of Aβ40 (EzBiolab, Carmel, IN, USA) was performed as described [25], using 2% of 1,1,1,3,3,3-hexafluoro-2-propanol as aggregation enhancer and spectrofluorimetric detection of thioflavin T fluorescence as the probe of amyloid aggregation.

## O=C1C(c2c(O)nc3ccccc3c2O)=Nc2ccccc21 [Compound 43, 2-(2,4-Dihydroxyquinolin-3-yl)-3H-indol-3-one]
other
  melting point: 90 to 92 °C
Aβ40
  inhibition at 100 µM: 17 ± 3%

Source: article PMC7731220, “Pharmacophore Modeling and 3D-QSAR Study of Indole and Isatin Derivatives as Antiamyloidogenic Agents Targeting Alzheimer’s Disease” (Molecules, 2020)
